From patent US20230313313A1, “BIOMARKERS FOR CANCER THERAPY USING MDM2 ANTAGONISTS” (OTSUKA PHARMACEUTICAL CO., LTD., priority 2020, published 2023)
“Also recorded” adds a separate entry of the source.

Tests used:
[1] = test system: MV4-11 cells; assay: In vivo systemic AML mouse model, PCR for circulating human DNA; details: MV4-11 empty vector (absence of SKP2 overexpression); NSG mice
Protocol: In addition to assessing the effect of SKP2 overexpression and knockdown in vitro, the impact of SKP2 on cancer proliferation was evaluated in vivo, using a disseminated AML model based on the MV4-11 cell line. To generate a systemic in vivo model of AML, NSG mice were injected in the tail vein with MV4-11 cells engineered to overexpress SKP2 or empty vector. Systemic tumour burden was assessed by PCR for circulating human DNA.
(§1) In Vivo Systemic AML Mouse Model
(§2) Female NSG Mice (6-8 weeks old) were bought from Jackson Laboratories (Bar Harbor, ME). Animals were given an intravenous injection of 5×10^6 MV4-11 cells and tumour engraftment was assessed by PCR for circulating human DNA. Mice were randomized to treatment groups based on systemic tumour burden as detected by PCR. Leukemic burden was then monitored weekly by serial bleeding followed by PCR. Mice were observed daily and euthanized humanely upon signs of terminal illness (hind limb paralysis, inability to eat/drink, moribund lethargy).
PCR for Circulating Human DNA
Blood samples were collected in heparinized capillary tubes and samples were stored at −80° C. until analysis. DNA was extracted using the DNeasy Blood & Tissue Kit (Qiagen, Cat: 69504) and PCR for human DNA was run using TaqMan™ Genotyping Master Mix (ThermoFisherScientific Catalog number: 4371355) using the following primers: […]

[2] = test system: MV4-11 cells; assay: Apoptosis assay by cytometry, MV4-11 overexpressing SKP2; assay type: cell-based, human; details: MV4-11 SKP2 OE, 48-hour treatment with 2 different concentrations
Protocol: (§3) Precision LentiORF Transduction:
(§4) Precision LentiORF Lentiviral Transduction Particles (Cat. OHS5900-224629438, Dharmacon, UK) were used to overexpress SKP2 in the MV4-11 AML cell line. Stable gene overexpression was established by cellular resistance to blasticidin (5 μg/ml) and was confirmed at the protein level by western blot. The Precision LentiORF control empty vector (Dharmacon, UK) served as a negative control.
(§5) Apoptosis Assay by Cytometry
(§6) The cell lines were plated out in 6-well plates at 0.5×10^6 cells/ml (2 ml/well) the day before treatment and allowed to recover overnight in a humidified 5% CO2/air incubator at 37° C. […] Briefly, the cells were resuspended with the Annexin V-binding buffer and stained with Annexin V-conjugate. Samples were incubated for 20 min at room temperature in the dark. After washing with the Annexin V-binding buffer, the cells were analyzed with a flow cytometer.
(§7) For caspase 3/7 staining CellEvent™ Caspase 3/7 Green reagent (Life Technologies), a fluorogenic substrate for activated caspase-3 and -7 was used according to the manufacturer's protocol. The cells were incubated with 5 μM of substrate for 30 min at room temperature and then analyzed with a flow cytometer.

[3] = test system: OCI-AML3 cells; assay: Induction of apoptosis by cleaved caspase-3 cytometry, combination with IAP antagonist; assay type: cell-based, human; details: 0.1 μM, 72 h
Protocol: Cleaved caspase-3 staining was recorded in the FL1 (green) channel, with unstained and DMSO control wells being used to set the gated stained and unstained cell populations—allowing the percentage of cells that are apoptotic to be calculated.

[4] = test system: MV4-11 cells; assay: Alamar Blue proliferation assay, MV4-11 overexpressing SKP2 vs control; assay type: cell-based, human; details: MV4-11 SKP2 OE compared to control
Protocol: as §3, §4
The number of viable cells was determined by Alamar Blue assay (Bio-Rad, Irvine, CA, USA). All cell lines were grown and assayed in RPMI-1640+10% FBS medium.
Compounds were diluted first in DMSO and then into serum-free medium, before addition to triplicate wells of the cultured cells to give a 0.1% DMSO final concentration. […] Twenty μl of Alamar Blue™ (AbD Serotec/Bio-Rad) was added to each well and plates were then incubated for 4-6 h at 37° C. in an atmosphere of 5% CO2 and air. Plates were then read at 535 nm (excitation) and 590 nm (emission) on a SpectraMax Gemini reader (Molecular Devices, San Jose, CA, USA).

[5] = test system: MV4-11 tumour cells in the bone marrow; assay: In vivo systemic AML mouse model, bone marrow flow cytometry; parameters: species or system NSG mice; details: 14 days after treatment
Protocol: Thus, overexpression of SKP2 is able to turn a sensitive AML cell line into a resistant cell line in vivo, providing evidence that low SKP2 is an important biomarker for sensitivity to MDM2 antagonism.
as §1, §2
Bone Marrow Flow Cytometry
Bone marrow cells were stained with PE-CF594 Anti-Human CD45 (BD 562312), BB515 Anti-Mouse CD45 (BD 564590) and DAPI. The amount of human cells engrafted in the bone marrow is expressed as % of viable mouse CD45+ cells.

[6] = test system: AML cell lines; assay: Activated caspase-3 by cytometry in AML cell lines; assay type: cell-based, human
Protocol: Levels of Compound 1-induced apoptosis were measured as percentage of cells with activated caspase-3. […] The extent of Compound 1-induced apoptosis is not predicted from the IC50 values obtained from the Alamar Blue proliferation assays, thus emphasising the impact of grouping cell lines specifically based on their apoptotic potential for subsequent analyses described in the following section.
Activated Caspase-3 by Cytometry
The cell lines were plated out in 6-well plates at 0.5×10^6 cells/ml (2 ml/well) the day before treatment and allowed to recover overnight in a humidified 5% CO2/air incubator at 37° C. […] 200 μl of each sample was added to duplicate wells of a 96-well plate. To one of the two wells, 50 μl of serum-free medium was added as an unstained control. […] The plate was incubated in the dark for 30 minutes before measuring fluorescent stained cells in a Guava EasyCyte HT cytometer (Merck Millipore, Kenilworth, NJ, USA). Activated caspase-3 staining was recorded in the GRN-B (green) channel, with unstained and DMSO control wells being used to set the gated stained and unstained cell populations—allowing the percentage of cells that are apoptotic to be calculated.

[7] = test system: OCI-AML3 AML cell line; assay: Apoptosis after SKP2 knockdown in a non-apoptotic AML cell line; assay type: cell-based, human
Protocol: shRNA Lentiviral Transduction:
MISSION® shRNA Lentiviral Transduction Particles (Sigma Aldrich, Pool, UK) were used to knockdown SKP2 in the OCI-AML3 AML cell line. Stable gene knockdown was established by cellular resistance to puromycin (1 μg/ml) and was confirmed at the protein level by western blot.
as §5, §6, §7

[8] = test system: acute myeloid leukemia blasts isolated from patients; assay: Primary AML blasts sensitivity, 24 h apoptosis assay (Annexin V/PI); assay type: cell-based, human; details: 13 primary AML samples, two concentrations
Protocol: Low SKP2 expression is a biomarker for sensitivity of AML to MDM2 antagnists in patient-derived samples.
Evaluation of Primary AML Blasts Sensitivity to Compound 1
Primary frozen AML samples were purchased from NBS Biobank (Moscow, Russia). 13 primary AML samples with high blast content (>80%) were cultured in selected expansion media composed by StemSpan SFEM II media (Stemcell, #09605), 1× StemSpan CD34+ expansion supplement (Stemcell, #02691), 2% FBS and 1% Penicillin/Streptomycin.
Evaluation of SKP2 Protein Expression on Primary AML Blasts
Capillary Western analyses were performed using the ProteinSimple Wes System (San Jose, CA, USA). Antibodies used were specific for SKP2 (#4358) and TXN1 (#2429) as loading control. Samples were diluted with 0.1× Sample Buffer. Then 4 parts of diluted sample were combined with 1 part 5× Fluorescent Master Mix (containing 5× sample buffer, 5× fluorescent standard, and 200 mM DTT) and heated at 95° C. for 5 min. After this denaturation step, the prepared samples, blocking reagent, primary antibodies (1:10 dilution for SKP2, 1:100 for TXN1), HRP-conjugated secondary antibodies and chemiluminescent substrate were dispensed into designated wells in an assay plate. A biotinylated ladder provided molecular weight standards for each assay. […]

[9] = test system: SJSA-1; assay: Protocol B: SJSA-1 CellTiter-Glo Luminescent Cell Viability Assay; details: Homo sapiens, SJSA-1, read-out: SJSA1 IC50 (μM) (Protocol B)

Row | Structure (SMILES) | systemic tumour burden (circulating human DNA) [1] | effect of SKP2 overexpression on apoptosis / cell death [2] | level of apoptosis (cleaved caspase-3), single agent [3] | level of apoptosis (cleaved caspase-3), single agent ([3]; listed as Compund 1) | effect of SKP2 overexpression on cytotoxicity / sensitivity [4] | bone marrow tumour burden (FACS) ([5]; SKP2 overexpressed) | leukemic tumour cells in the bone marrow (FACS) ([5]; absence of SKP2 overexpression) | apoptosis (cells with activated caspase-3) ([6]; HNT-34, OCI-AML3, ML-2, GDM-1 (non-apoptotic), 48-hour treatment with 100 nM) [%] | cells staining positive for activated caspase-3 ([6]; MV4-11, EOL-1, Molm-13, OCI-AML-2 and BDCM (apoptotic), 48-hour treatment with 100 nM) [%] | increase in activated caspase-3 ([6]; panel of 12 AML cell lines, negative control KG-1, TP53 mutant) | effect of SKP2 knockdown on cytotoxicity ([7]; non-apoptotic AML cell line) | increase of apoptosis on SKP2 knockdown compared to control (no SKP2 knockdown) ([7]; non-apoptotic AML cell line (high basal SKP2), 0.1 μM) | sensitivity of SKP2 low blasts compared with SKP2 high blasts [8] | IC50 [9] [µM]
1 | CC[C@@](O)(c1cc(F)c2c(c1)C(=O)N([C@H](c1ccc(Cl)cc1)[C@H](C)C(=O)O)[C@@]2(OC)c1ccc(Cl)cc1)C1CCOCC1 [Compound 1, (2S,3S)-3-(4-chlorophenyl)-3-[(1R)-1-(4-chlorophenyl)-7-fluoro-5-[(1S)-1-hydroxy-1-(oxan-4-yl)propyl]-1-methoxy-3-oxo-2,3-dihydro-1H-isoindol-2-yl]-2-methylpropanoic acid] | only low levels of circulating human DNA | reduces Compound 1-dependent cell death; also recorded: strong reduction in apoptosis | did not induce a high level of apoptosis | does not induce substantial levels of cell death by apoptosis | reduces Compound 1-induced cytotoxicity; also recorded: resistant | does not reduce the number of leukemic cells; also recorded: no effects | reduces the number of leukemia cells; also recorded: significant decrease | < 30 | > 30 | observed in all cell lines except the negative control | increases Compound 1-induced cytotoxicity | about 30% | more sensitive | 
2 | [2H]C([2H])(O)C1(C([2H])([2H])O[C@]2(c3ccc(Cl)cc3)c3c(F)cc(C(O)(CC)c4cn(C)cn4)cc3C(=O)N2Cc2ccc(C#N)cn2)CC1 (some centres unmarked) [Example 440] |  |  |  |  |  |  |  |  |  |  |  |  |  | 1.9
